Key:
Format in all cases: in vivo
[1] = tested on: common ragweed (Ambrosia artemisiifolia L., AMBEL); assay: Post-emerge greenhouse herbicide test, phytotoxicity rating; conditions: 14 days after application
Procedure, shortened: (§1)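 Scores use a 0 (no damage) to 100 (complete kill) scale, taken 14 days after a foliar spray. Acetone solutions with 0.25% v/v non-ionic surfactant were applied by track sprayer at 187 l/ha and 63-1000 g ai/ha to bottom-watered 2-3 leaf plants.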

[2] = tested on: soybean (Glycine max L., var. Pella 86, SOY); assay: Pre-emerge greenhouse test, crop damage rating; conditions: 14 days after application, rating scale 0-100
Procedure, shortened: (§2)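 Visual 0–100 injury rating (100 = all plants dead) taken 14 days after treatment. Rates of 125–1000 g ai/ha in acetone, 187 l/ha, were sprayed onto soil one day post-sowing; pots were surface-watered to incorporate, then bottom-watered.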

[3] = tested on: upland rice (Oryza sp., var.Tebonnet, RICE); assay: Post-emerge greenhouse test, crop damage rating; conditions: 14 days after application
Procedure, shortened: as §1

[4] = tested on: field corn (Zea mays L., var. Dekalb 535, CORN); assay: Post-emerge greenhouse test, crop damage rating; conditions: 14 days after application
Procedure, shortened: as §1

[5] = tested on: common ragweed (Ambrosia artemisiifolia L., AMBEL); assay: Pre-emerge greenhouse herbicide test, phytotoxicity rating; conditions: 14 days after application, rating scale 0-100
Procedure, shortened: as §2

[6] = tested on: redroot pigweed (Amaranthus retroflexus, AMARE); assay: as above; conditions: 14 days after application, rating scale 0-100
Procedure, shortened: as §2

[7] = tested on: lambsquarters (Chenopodium album, CHEAL); assay: as above; conditions: 14 days after application, rating scale 0-100
Procedure, shortened: as §2

[8] = tested on: sicklepod (Cassia obtusifolia, CASOB); assay: as above; conditions: 14 days after application, rating scale 0-100
Procedure, shortened: as §2

[9] = tested on: ivyleaf morningglory (Ipomoea hederacea, IPOHE); assay: as above; conditions: 14 days after application, rating scale 0-100
Procedure, shortened: as §2

[10] = tested on: Johnsongrass (Sorghum halepense, SORHA); assay: as above; conditions: 14 days after application, rating scale 0-100
Procedure, shortened: as §2

[11] = tested on: barnyardgrass (Echinochloa crusgalli, ECHCG); assay: as above; conditions: 14 days after application, rating scale 0-100
Procedure, shortened: as §2

[12] = tested on: green foxtail (Setaria viridis, SETVI); assay: as above; conditions: 14 days after application, rating scale 0-100
Procedure, shortened: as §2

[13] = tested on: large crabgrass (Digitaria sanguinalis, DIGSA); assay: as above; conditions: 14 days after application, rating scale 0-100
Procedure, shortened: as §2

[14] = tested on: velvetleaf (Abutilon theophrasti, ABUTH); assay: as above; conditions: 14 days after application, rating scale 0-100
Procedure, shortened: as §2

[15] = tested on: soybean (Glycine max L., var. Pella 86, SOY); assay: Post-emerge greenhouse test, crop damage rating; conditions: 14 days after application
Procedure, shortened: as §1

[16] = tested on: redroot pigweed (Amaranthus retroflexus, AMARE); assay: Post-emerge greenhouse herbicide test, phytotoxicity rating; conditions: 14 days after application
Procedure, shortened: as §1

[17] = tested on: lambsquarters (Chenopodium album, CHEAL); assay: as above; conditions: 14 days after application
Procedure, shortened: as §1

[18] = tested on: sicklepod (Cassia obtusifolia, CASOB); assay: as above; conditions: 14 days after application
Procedure, shortened: as §1

[19] = tested on: ivyleaf morningglory (Ipomoea hederacea, IPOHE); assay: as above; conditions: 14 days after application
Procedure, shortened: as §1

[20] = tested on: Johnsongrass (Sorghum halepense, SORHA); assay: as above; conditions: 14 days after application
Procedure, shortened: as §1

[21] = tested on: barnyardgrass (Echinochloa crusgalli, ECHCG); assay: as above; conditions: 14 days after application
Procedure, shortened: as §1

[22] = tested on: green foxtail (Setaria viridis, SETVI); assay: as above; conditions: 14 days after application
Procedure, shortened: as §1

[23] = tested on: large crabgrass (Digitaria sanguinalis, DIGSA); assay: as above; conditions: 14 days after application
Procedure, shortened: as §1

[24] = tested on: velvetleaf (Abutilon theophrasti, ABUTH); assay: as above; conditions: 14 days after application
Procedure, shortened: as §1

[25] = tested on: upland rice (Oryza sp., var.Tebonnet, RICE); assay: Pre-emerge greenhouse test, crop damage rating; conditions: 14 days after application, rating scale 0-100
Procedure, shortened: as §2

[26] = tested on: field corn (Zea mays L., var. Dekalb 535, CORN); assay: Pre-emerge greenhouse test, crop damage rating; conditions: 14 days after application, rating scale 0-100
Procedure, shortened: as §2

O=c1n(CCCF)nnn1-c1cc(Oc2ncccc2[N+](=O)[O-])c(Cl)cc1F [Compound 6-2]
AMBEL phytotoxicity rating (0-100) ([1]; 63 g al/ha): 10 | AMBEL phytotoxicity rating (0-100) ([1]; 500 g al/ha): 30 | crop damage rating SOY ([2]; 125 g ai/ha): 10 | crop damage rating SOY ([2]; 500 g ai/ha): 15 | RICE crop damage rating (0-100) ([3]; 63 g al/ha): 0 | RICE crop damage rating (0-100) ([3]; 500 g al/ha): 30 | CORN crop damage rating (0-100) ([4]; 63 g al/ha): 5 | CORN crop damage rating (0-100) ([4]; 500 g al/ha): 5 | phytotoxicity rating AMBEL ([5]; 125 g ai/ha): 30 | phytotoxicity rating AMBEL ([5]; 500 g ai/ha): 40 | phytotoxicity rating AMARE ([6]; 125 g ai/ha): 95 | phytotoxicity rating AMARE ([6]; 500 g ai/ha): 99 | phytotoxicity rating CHEAL ([7]; 125 g ai/ha): 100 | phytotoxicity rating CHEAL ([7]; 500 g ai/ha): 100 | phytotoxicity rating CASOB ([8]; 125 g ai/ha): 20 | phytotoxicity rating CASOB ([8]; 500 g ai/ha): 0 | phytotoxicity rating IPOHE ([9]; 125 g ai/ha): 10 | phytotoxicity rating IPOHE ([9]; 500 g ai/ha): 40 | phytotoxicity rating SORHA ([10]; 125 g ai/ha): 0 | phytotoxicity rating SORHA ([10]; 500 g ai/ha): 0 | phytotoxicity rating ECHCG ([11]; 125 g ai/ha): 0 | phytotoxicity rating ECHCG ([11]; 500 g ai/ha): 10 | phytotoxicity rating SETVI ([12]; 125 g ai/ha): 30 | phytotoxicity rating SETVI ([12]; 500 g ai/ha): 70 | phytotoxicity rating DIGSA ([13]; 125 g ai/ha): 0 | phytotoxicity rating DIGSA ([13]; 500 g ai/ha): 60 | phytotoxicity rating ABUTH ([14]; 125 g ai/ha): 90 | phytotoxicity rating ABUTH ([14]; 500 g ai/ha): 100 | SOY crop damage rating (0-100) ([15]; 63 g al/ha): 20 | SOY crop damage rating (0-100) ([15]; 500 g al/ha): 30 | AMARE phytotoxicity rating (0-100) ([16]; 63 g al/ha): 40 | AMARE phytotoxicity rating (0-100) ([16]; 500 g al/ha): 95 | CHEAL phytotoxicity rating (0-100) ([17]; 63 g al/ha): 50 | CHEAL phytotoxicity rating (0-100) ([17]; 500 g al/ha): 90 | CASOB phytotoxicity rating (0-100) ([18]; 63 g al/ha): 0 | CASOB phytotoxicity rating (0-100) ([18]; 500 g al/ha): 10 | IPOHE phytotoxicity rating (0-100) ([19]; 63 g al/ha): 20 | IPOHE phytotoxicity rating (0-100) ([19]; 500 g al/ha): 90 | SORHA phytotoxicity rating (0-100) ([20]; 63 g al/ha): 0 | SORHA phytotoxicity rating (0-100) ([20]; 500 g al/ha): 20 | ECHCG phytotoxicity rating (0-100) ([21]; 63 g al/ha): 0 | ECHCG phytotoxicity rating (0-100) ([21]; 500 g al/ha): 30 | SETVI phytotoxicity rating (0-100) ([22]; 63 g al/ha): 10 | SETVI phytotoxicity rating (0-100) ([22]; 500 g al/ha): 10 | DIGSA phytotoxicity rating (0-100) ([23]; 63 g al/ha): 0 | DIGSA phytotoxicity rating (0-100) ([23]; 500 g al/ha): 0 | ABUTH phytotoxicity rating (0-100) ([24]; 63 g al/ha): 98 | ABUTH phytotoxicity rating (0-100) ([24]; 500 g al/ha): 100 | crop damage rating RICE ([25]; 125 g ai/ha): 20 | crop damage rating RICE ([25]; 500 g ai/ha): 10 | crop damage rating CORN ([26]; 125 g ai/ha): 0 | crop damage rating CORN ([26]; 500 g ai/ha): 0

N#Cc1cccnc1Oc1cc(-n2nnn(CCCF)c2=O)c(F)cc1Cl [Compound 6-4]
AMBEL phytotoxicity rating (0-100) ([1]; 63 g al/ha): 20 | AMBEL phytotoxicity rating (0-100) ([1]; 500 g al/ha): 20 | crop damage rating SOY ([2]; 125 g ai/ha): 0 | crop damage rating SOY ([2]; 500 g ai/ha): 20 | RICE crop damage rating (0-100) ([3]; 63 g al/ha): 20 | RICE crop damage rating (0-100) ([3]; 500 g al/ha): 35 | CORN crop damage rating (0-100) ([4]; 63 g al/ha): 10 | CORN crop damage rating (0-100) ([4]; 500 g al/ha): 20 | phytotoxicity rating AMBEL ([5]; 125 g ai/ha): 0 | phytotoxicity rating AMBEL ([5]; 500 g ai/ha): 40 | phytotoxicity rating AMARE ([6]; 125 g ai/ha): 100 | phytotoxicity rating AMARE ([6]; 500 g ai/ha): 100 | phytotoxicity rating CHEAL ([7]; 125 g ai/ha): 100 | phytotoxicity rating CHEAL ([7]; 500 g ai/ha): 100 | phytotoxicity rating CASOB ([8]; 125 g ai/ha): 50 | phytotoxicity rating CASOB ([8]; 500 g ai/ha): 30 | phytotoxicity rating IPOHE ([9]; 125 g ai/ha): 40 | phytotoxicity rating IPOHE ([9]; 500 g ai/ha): 100 | phytotoxicity rating SORHA ([10]; 125 g ai/ha): 20 | phytotoxicity rating SORHA ([10]; 500 g ai/ha): 100 | phytotoxicity rating ECHCG ([11]; 125 g ai/ha): 0 | phytotoxicity rating ECHCG ([11]; 500 g ai/ha): 95 | phytotoxicity rating SETVI ([12]; 125 g ai/ha): 100 | phytotoxicity rating SETVI ([12]; 500 g ai/ha): 100 | phytotoxicity rating DIGSA ([13]; 125 g ai/ha): 70 | phytotoxicity rating DIGSA ([13]; 500 g ai/ha): 100 | phytotoxicity rating ABUTH ([14]; 125 g ai/ha): 100 | phytotoxicity rating ABUTH ([14]; 500 g ai/ha): 100 | SOY crop damage rating (0-100) ([15]; 63 g al/ha): 20 | SOY crop damage rating (0-100) ([15]; 500 g al/ha): 60 | AMARE phytotoxicity rating (0-100) ([16]; 63 g al/ha): 75 | AMARE phytotoxicity rating (0-100) ([16]; 500 g al/ha): 99 | CHEAL phytotoxicity rating (0-100) ([17]; 63 g al/ha): 85 | CHEAL phytotoxicity rating (0-100) ([17]; 500 g al/ha): 100 | CASOB phytotoxicity rating (0-100) ([18]; 63 g al/ha): 15 | CASOB phytotoxicity rating (0-100) ([18]; 500 g al/ha): 50 | IPOHE phytotoxicity rating (0-100) ([19]; 63 g al/ha): 65 | IPOHE phytotoxicity rating (0-100) ([19]; 500 g al/ha): 85 | SORHA phytotoxicity rating (0-100) ([20]; 63 g al/ha): 0 | SORHA phytotoxicity rating (0-100) ([20]; 500 g al/ha): 80 | ECHCG phytotoxicity rating (0-100) ([21]; 63 g al/ha): 0 | ECHCG phytotoxicity rating (0-100) ([21]; 500 g al/ha): 60 | SETVI phytotoxicity rating (0-100) ([22]; 63 g al/ha): 20 | SETVI phytotoxicity rating (0-100) ([22]; 500 g al/ha): 40 | DIGSA phytotoxicity rating (0-100) ([23]; 63 g al/ha): 0 | DIGSA phytotoxicity rating (0-100) ([23]; 500 g al/ha): 0 | ABUTH phytotoxicity rating (0-100) ([24]; 63 g al/ha): 90 | ABUTH phytotoxicity rating (0-100) ([24]; 500 g al/ha): 100 | crop damage rating RICE ([25]; 125 g ai/ha): 15 | crop damage rating RICE ([25]; 500 g ai/ha): 35 | crop damage rating CORN ([26]; 125 g ai/ha): 0 | crop damage rating CORN ([26]; 500 g ai/ha): 10
